Values of other authors as cited in patent US9676702B2, “Methods for synthesizing amatoxin building block and amatoxins” (Heidelberg Pharma GmbH, priority 2012, dated 2017).

Target: RNA-polymerase II (Homo sapiens, UniProt P24928+P30876)
Conditions: non-covalent complex; background statement, no method given; read-out: KD of the complex between amanitin and RNA-polymerase II

## amanitin
  Kd: 3 nM
